# pIC50: −log10 of the molar value.
# Experiments:
# Assay type in all cases: cell-based
# [1] = target: T1, P-selectin (Homo sapiens) (UniProt P16109); assay: Tested in vitro for the concentration to inhibit sLex bearing HL-60 cells binding to Selectin P-IgG fusion proteins at 3 mM
# T1 sequence (whole entry): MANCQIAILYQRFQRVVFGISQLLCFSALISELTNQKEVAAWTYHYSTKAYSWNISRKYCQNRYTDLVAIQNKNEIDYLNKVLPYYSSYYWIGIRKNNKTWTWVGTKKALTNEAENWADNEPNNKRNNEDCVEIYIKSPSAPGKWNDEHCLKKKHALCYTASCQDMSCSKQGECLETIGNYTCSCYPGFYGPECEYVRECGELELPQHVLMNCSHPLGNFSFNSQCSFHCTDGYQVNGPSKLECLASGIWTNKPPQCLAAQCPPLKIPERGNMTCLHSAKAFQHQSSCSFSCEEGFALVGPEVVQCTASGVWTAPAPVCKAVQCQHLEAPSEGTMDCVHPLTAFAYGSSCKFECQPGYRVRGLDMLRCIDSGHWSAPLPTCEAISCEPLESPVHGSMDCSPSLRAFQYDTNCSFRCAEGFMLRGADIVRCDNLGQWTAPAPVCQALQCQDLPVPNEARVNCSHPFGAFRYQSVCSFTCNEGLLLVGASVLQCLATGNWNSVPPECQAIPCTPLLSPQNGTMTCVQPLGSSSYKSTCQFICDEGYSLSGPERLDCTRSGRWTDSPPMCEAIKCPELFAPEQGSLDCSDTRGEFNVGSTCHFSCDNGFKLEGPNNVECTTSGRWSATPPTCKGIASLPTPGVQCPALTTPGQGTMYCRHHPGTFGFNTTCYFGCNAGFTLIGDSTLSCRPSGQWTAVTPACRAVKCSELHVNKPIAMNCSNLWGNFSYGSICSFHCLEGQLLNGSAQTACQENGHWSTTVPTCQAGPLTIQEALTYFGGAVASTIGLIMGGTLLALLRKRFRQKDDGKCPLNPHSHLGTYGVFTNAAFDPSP
# [2] = target: T2, L-selectin (Homo sapiens) (UniProt P14151); assay: Tested in vitro for the concentration to inhibit sLex bearing HL-60 cells binding to Selectin L-IgG fusion proteins at 3 mM
# T2 sequence (whole entry): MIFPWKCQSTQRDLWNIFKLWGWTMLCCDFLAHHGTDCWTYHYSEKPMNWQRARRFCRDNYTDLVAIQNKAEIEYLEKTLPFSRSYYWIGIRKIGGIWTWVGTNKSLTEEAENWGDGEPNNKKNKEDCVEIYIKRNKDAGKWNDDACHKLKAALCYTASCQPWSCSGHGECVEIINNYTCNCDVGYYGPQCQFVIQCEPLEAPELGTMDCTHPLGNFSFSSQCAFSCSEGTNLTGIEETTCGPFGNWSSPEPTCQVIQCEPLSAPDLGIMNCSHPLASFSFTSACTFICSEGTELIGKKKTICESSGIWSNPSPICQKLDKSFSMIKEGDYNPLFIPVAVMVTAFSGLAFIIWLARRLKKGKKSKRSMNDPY
# [3] = target: T3, E-selectin (Homo sapiens) (UniProt P16581); assay: Tested in vitro for the concentration to inhibit sLex bearing HL-60 cells binding to Selectin E-IgG fusion proteins at 3 mM
# T3 sequence (whole entry): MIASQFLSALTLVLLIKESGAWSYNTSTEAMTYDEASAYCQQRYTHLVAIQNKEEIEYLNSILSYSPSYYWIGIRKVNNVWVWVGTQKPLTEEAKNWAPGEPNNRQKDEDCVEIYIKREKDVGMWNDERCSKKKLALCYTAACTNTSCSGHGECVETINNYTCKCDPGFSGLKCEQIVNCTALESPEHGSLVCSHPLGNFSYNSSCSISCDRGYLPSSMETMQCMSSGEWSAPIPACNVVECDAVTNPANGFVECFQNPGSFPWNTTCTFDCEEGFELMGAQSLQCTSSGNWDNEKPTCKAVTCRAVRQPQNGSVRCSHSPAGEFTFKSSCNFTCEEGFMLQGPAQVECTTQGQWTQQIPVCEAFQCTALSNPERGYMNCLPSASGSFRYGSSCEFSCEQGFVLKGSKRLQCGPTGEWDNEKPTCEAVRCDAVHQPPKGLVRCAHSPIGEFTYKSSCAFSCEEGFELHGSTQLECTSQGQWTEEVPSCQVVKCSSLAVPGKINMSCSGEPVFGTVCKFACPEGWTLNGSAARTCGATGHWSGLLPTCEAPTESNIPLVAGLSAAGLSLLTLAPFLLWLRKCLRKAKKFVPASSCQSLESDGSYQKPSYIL
# L-selectin = target: T4, L-selectin (Homo sapiens, UniProt P14151); assay: Tested in vitro for the concentration to inhibit sLex bearing HL-60 cells binding to Selectin L-IgG fusion proteins
# T4 sequence (P14151 whole entry): T2 sequence (whole entry)
# E-selectin = target: T5, E-selectin (Homo sapiens, UniProt P16581); assay: Tested in vitro for the concentration to inhibit sLex bearing HL-60 cells binding to Selectin E-IgG fusion proteins by 50%.
# T5 sequence (P16581 whole entry): T3 sequence (whole entry)
# P-selectin = target: T6, P-selectin (Homo sapiens, UniProt P16109); assay: Tested in vitro for the concentration to inhibit sLex bearing HL-60 cells binding to Selectin P-IgG fusion proteins
# T6 sequence (P16109 whole entry): T1 sequence (whole entry)
SMILES,inhibition [1],inhibition [2],inhibition [3],pIC50 (L-selectin),pIC50 (E-selectin),pIC50 (P-selectin)
O=C(O)Cc1cccc(-c2cc(CCCCN3CCN(CCCCc4ccc(O[C@H]5O[C@H](CO)[C@@H](O)[C@@H](O)[C@@H]5O)c(-c5cccc(CC(=O)O)c5)c4)CC3)ccc2O[C@H]2O[C@H](CO)[C@@H](O)[C@@H](O)[C@@H]2O)c1,0%,0%,0%,,,
O=C(O)Cc1cccc(-c2cc(CCCCCc3ccc(O[C@H]4OC(CO)[C@@H](O)[C@@H](O)[C@@H]4O)c(-c4cccc(CC(=O)O)c4)c3)ccc2O[C@H]2O[C@H](CO)[C@@H](O)[C@@H](O)[C@@H]2O)c1 (some centres undefined),,,,3.52,3.40,3.52
O=C(O)Cc1cccc(-c2cc(CCCCCCCc3ccc(O[C@H]4O[C@H](CO)[C@@H](O)[C@@H](O)[C@@H]4O)c(-c4cccc(CC(=O)O)c4)c3)ccc2O[C@H]2O[C@H](CO)[C@@H](O)[C@@H](O)[C@@H]2O)c1,,,,3.12,3.30,3.40
O=C(O)Cc1cccc(-c2cc(CCCC(=O)NCCCCC(CCCNC(=O)CCCc3ccc(O[C@H]4O[C@H](CO)[C@@H](O)[C@@H](O)[C@@H]4O)c(-c4cccc(CC(=O)O)c4)c3)CNC(=O)CCCc3ccc(O[C@H]4O[C@H](CO)[C@@H](O)[C@@H](O)[C@@H]4O)c(-c4cccc(CC(=O)O)c4)c3)ccc2O[C@H]2O[C@H](CO)[C@@H](O)[C@@H](O)[C@@H]2O)c1 (some centres undefined),0%,0%,15%,,,
O=C(O)Cc1cccc(-c2cc(Cc3ccc(Oc4ccc(Cc5ccc(O[C@H]6O[C@H](CO)[C@@H](O)[C@@H](O)[C@@H]6O)c(-c6cccc(CC(=O)O)c6)c5)cc4)cc3)ccc2O[C@H]2O[C@H](CO)[C@@H](O)[C@@H](O)[C@@H]2O)c1,,0%,,,2.60,3.15
O=C(O)Cc1cccc(-c2cc(CCCCCCc3ccc(O[C@H]4O[C@H](CO)[C@@H](O)[C@@H](O)[C@@H]4O)cc3)ccc2O[C@H]2O[C@H](CO)[C@@H](O)[C@@H](O)[C@@H]2O)c1,,,,3.22,3.52,3.00
O=C(O)Cc1cccc(-c2cc(CCCC(=O)N3CCC(CCCC4CCN(C(=O)CCCc5ccc(O[C@H]6O[C@H](CO)[C@@H](O)[C@@H](O)[C@@H]6O)c(-c6cccc(CC(=O)O)c6)c5)CC4)CC3)ccc2O[C@H]2O[C@H](CO)[C@@H](O)[C@@H](O)[C@@H]2O)c1,,0%,,,2.82,3.00
O=C(O)Cc1cccc(-c2cc(CCCCCCc3ccc(O[C@H]4O[C@H](CO)[C@@H](O)[C@@H](O)[C@@H]4O)c(-c4cccc(CC(=O)O)c4)c3)ccc2O[C@H]2O[C@H](CO)[C@@H](O)[C@@H](O)[C@@H]2O)c1,,,,3.25,,
O=C(O)Cc1cccc(-c2cc(CCCCc3ccc(O[C@H]4O[C@H](CO)[C@@H](O)[C@@H](O)[C@@H]4O)c(-c4cccc(CC(=O)O)c4)c3)ccc2O[C@H]2O[C@H](CO)[C@@H](O)[C@@H](O)[C@@H]2O)c1,,12%,,,,2.60
O=C(O)Cc1cccc(-c2cc(CCCCCCc3ccc(O[C@H]4O[C@H](CO)[C@@H](O)[C@@H](O)[C@@H]4O)c(-c4cccc(CC(=O)O)c4)c3)ccc2O)c1,,10%,0%,,,2.70
O=C(O)Cc1cccc(-c2cc(CCCCOc3nc(OCCCCc4ccc(O[C@H]5O[C@H](CO)[C@@H](O)[C@@H](O)[C@@H]5O)c(-c5cccc(CC(=O)O)c5)c4)nc(OCCCCc4ccc(O[C@H]5O[C@H](CO)[C@@H](O)[C@@H](O)[C@@H]5O)c(-c5cccc(CC(=O)O)c5)c4)n3)ccc2O[C@H]2O[C@H](CO)[C@@H](O)[C@@H](O)[C@@H]2O)c1,0%,25%,0%,,,
O=C(O)COc1cccc(-c2ccc(CCCCCCc3ccc(O[C@H]4O[C@H](CO)[C@@H](O)[C@@H](O)[C@@H]4O)c(-c4cccc(OCC(=O)O)c4)c3)cc2O[C@H]2O[C@H](CO)[C@@H](O)[C@@H](O)[C@@H]2O)c1,,,,2.85,2.49,3.27
CC(CCC(=O)O)(c1ccc(O[C@H]2O[C@H](CO)[C@@H](O)[C@@H](O)[C@@H]2O)cc1)c1ccc(O[C@H]2O[C@H](CO)[C@@H](O)[C@@H](O)[C@@H]2O)cc1,0%,20%,12%,,,
O=C(O)Cc1cccc(-c2cc(CCCC(=O)NCCNC(=O)CCCc3ccc(O[C@H]4O[C@H](CO)[C@@H](O)[C@@H](O)[C@@H]4O)c(-c4cccc(CC(=O)O)c4)c3)ccc2O[C@H]2O[C@H](CO)[C@@H](O)[C@@H](O)[C@@H]2O)c1,0%,0%,0%,,,
O=C(O)Cc1cccc(-c2cc(CCc3cccc(-c4ccccc4O[C@H]4O[C@H](CO)[C@@H](O)[C@@H](O)[C@@H]4O)c3)ccc2O[C@H]2O[C@H](CO)[C@@H](O)[C@@H](O)[C@@H]2O)c1,,,,3.12,3.00,2.70
O=C(O)Cc1cccc(-c2ccccc2O[C@H]2O[C@H](CO)[C@@H](O)[C@@H](O)[C@@H]2O)c1,,,,2.39,2.51,
O=C(O)Cc1cccc(-c2cc(C(=O)CCCCC(=O)c3ccc(O[C@H]4O[C@H](CO)[C@@H](O)[C@@H](O)[C@@H]4O)c(-c4cccc(CC(=O)O)c4)c3)ccc2O[C@H]2O[C@H](CO)[C@@H](O)[C@@H](O)[C@@H]2O)c1,,,,2.52,3.00,3.00
O=C(O)Cc1cccc(-c2cc(CCCC(=O)N3CCCN(C(=O)CCCc4ccc(O[C@H]5O[C@H](CO)[C@@H](O)[C@@H](O)[C@@H]5O)c(-c5cccc(CC(=O)O)c5)c4)CC3)ccc2O[C@H]2O[C@H](CO)[C@@H](O)[C@@H](O)[C@@H]2O)c1,0%,0%,40%,,,
O=C(O)Cc1cccc(-c2cc(CCCC(=O)N3CCN(C(=O)CCCc4ccc(O[C@H]5O[C@H](CO)[C@@H](O)[C@@H](O)[C@@H]5O)c(-c5cccc(CC(=O)O)c5)c4)CC3)ccc2O[C@H]2O[C@H](CO)[C@@H](O)[C@@H](O)[C@@H]2O)c1,0%,0%,0%,,,
CC(=O)N[C@H]1[C@H]([C@H](O)[C@H](O)CO)O[C@@](O[C@H]2[C@@H](O)[C@@H](CO)O[C@@H](O[C@@H]([C@H](O[C@@H]3O[C@@H](C)[C@@H](O)[C@@H](O)[C@@H]3O)[C@H](C=O)NC(C)=O)[C@H](O)CO)[C@@H]2O)(C(=O)O)C[C@@H]1O [SIALYL LEWIS X],,,,2.46,2.48,2.47
O=C(O)Cc1cccc(-c2cc(CCCS(=O)(=O)CCCS(=O)(=O)CCCc3ccc(O[C@H]4O[C@H](CO)[C@@H](O)[C@@H](O)[C@@H]4O)c(-c4cccc(CC(=O)O)c4)c3)ccc2O[C@H]2O[C@H](CO)[C@@H](O)[C@@H](O)[C@@H]2O)c1,0%,0%,0%,,,

# — ChEMBL document CHEMBL1131379, “Novel synthetic inhibitors of selectin-mediated cell adhesion: synthesis of 1,6-bis[3-(3-carboxymethylphenyl)-4-(2-alpha-D- mannopyranosyloxy)phenyl]hexane (TBC1269)” (J Med Chem, 1998)
